Data: PubChem BioAssay AID1259407 (Chemical Carcinogenesis Research Information System (CCRIS), 2018)
Active and inactive are the calls of the source. How the calls were made is not given here.

Tested on: CCRIS mutagenicity, Ames/micronucleus/aberration tests
Test: CCRIS mutagenicity studies
[1] = Test System: AMES SALMONELLA TYPHIMURIUM, Strain/Indicator: TA98, Metabolic Activation: NONE, Method: STANDARD PLATE
[2] = Test System: AMES SALMONELLA TYPHIMURIUM, Strain/Indicator: TA98, Metabolic Activation: RAT, LIVER, S-9, AROCLOR 1254, Method: STANDARD PLATE
[3] = Test System: AMES SALMONELLA TYPHIMURIUM, Strain/Indicator: TA100, Metabolic Activation: NONE, Method: STANDARD PLATE
[4] = Test System: AMES SALMONELLA TYPHIMURIUM, Strain/Indicator: TA100, Metabolic Activation: RAT, LIVER, S-9, AROCLOR 1254, Method: STANDARD PLATE
[5] = Test System: AMES SALMONELLA TYPHIMURIUM, Strain/Indicator: TA1535, Metabolic Activation: NONE, Method: STANDARD PLATE
[6] = Test System: AMES SALMONELLA TYPHIMURIUM, Strain/Indicator: TA1535, Metabolic Activation: RAT, LIVER, S-9, AROCLOR 1254, Method: STANDARD PLATE
[7] = Test System: AMES SALMONELLA TYPHIMURIUM, Strain/Indicator: TA1537, Metabolic Activation: NONE, Method: STANDARD PLATE
[8] = Test System: AMES SALMONELLA TYPHIMURIUM, Strain/Indicator: TA1537, Metabolic Activation: RAT, LIVER, S-9, AROCLOR 1254, Method: STANDARD PLATE
[9] = Test System: AMES SALMONELLA TYPHIMURIUM, Strain/Indicator: TA98, Metabolic Activation: NONE, Method: PREINCUBATION
[10] = Test System: AMES SALMONELLA TYPHIMURIUM, Strain/Indicator: TA100, Metabolic Activation: NONE, Method: PREINCUBATION

For CCN(CCCCO)N=O, the mutagenic call (Test System: AMES SALMONELLA TYPHIMURIUM, Strain/Indicator: TA1535, Metabolic Activation: RAT, LIVER, S-9, KC500 OR PHENOBARBITAL, Method: LIQUID SUSPENSION) was “active; positive”.
For O=S(=O)(Oc1ccc(Cl)c(Cl)c1)c1cccc2cccnc12, the mutagenic call [1] was “inactive; negative”, the mutagenic call [2] was “active; positive” and the mutagenic call [3] was “inactive; negative”. The mutagenic call [4] was “active; positive”, the mutagenic call [5] was “inactive; negative” and the mutagenic call [6] was “inactive; negative”. For the same compound, the mutagenic call [7] was “inactive; negative” and the mutagenic call [8] was “inactive; negative”.
For O=C/C(Cl)=C(/Cl)C(=O)O, the mutagenic call [5] was “active; positive” and the mutagenic call (Test System: CHINESE HAMSTER OVARY, Strain/Indicator: CHO-KTL3 (HPRT)/6-THIOGUANINE, Metabolic Activation: NONE) was “active; positive”.
For COc1ccc(C(=O)[C@@H]2O[C@@H]2c2ccccc2)cc1, the mutagenic call [1] was “inactive; negative”, the mutagenic call [2] was “inactive; negative” and the mutagenic call [3] was “inactive; negative”. For the same compound, the mutagenic call [4] was “inactive; negative”.
With O=C(N[C@H](CO)[C@H](O)c1ccc([N+](=O)[O-])cc1)C(Cl)Cl the mutagenic call (Test System: CHINESE HAMSTER V-79, Strain/Indicator: V-79/6-THIOGUANINE, Metabolic Activation: NONE) was “active; positive” and the mutagenic call (Test System: CHINESE HAMSTER V-79, Strain/Indicator: V-79/6-THIOGUANINE, Metabolic Activation: RAT HEPATOCYTES) was “inactive; negative”.
In the case of COCCOC(C)=O, the mutagenic call (End Point: IN VITRO CHROMOSOMAL ABERRATIONS, Test System: CHO-LB CELLS, Metabolic Activation: NONE) is reported as “inactive; negative”, the mutagenic call (End Point: IN VITRO CHROMOSOMAL ABERRATIONS, Test System: CHO-LB CELLS, Metabolic Activation: RAT, LIVER, S-9, AROCLOR 1254) is reported as “active; positive” and the mutagenic call (Test System: AMES SALMONELLA TYPHIMURIUM, Strain/Indicator: TA97, Metabolic Activation: HAMSTER, LIVER, S-9, AROCLOR 1254 (10 OR 30%), Method: PREINCUBATION) is reported as “inactive; negative”. The mutagenic call (Test System: AMES SALMONELLA TYPHIMURIUM, Strain/Indicator: TA97, Metabolic Activation: NONE, Method: PREINCUBATION) was “inactive; negative”, the mutagenic call (Test System: AMES SALMONELLA TYPHIMURIUM, Strain/Indicator: TA97, Metabolic Activation: RAT, LIVER, S-9, AROCLOR 1254 (10 OR 30%), Method: PREINCUBATION) was “inactive; negative” and the mutagenic call (Test System: AMES SALMONELLA TYPHIMURIUM, Strain/Indicator: TA98, Metabolic Activation: HAMSTER, LIVER, S-9, AROCLOR 1254 (10 OR 30%), Method: PREINCUBATION) was “inactive; negative”. The mutagenic call [9] was “inactive; negative”, the mutagenic call (Test System: AMES SALMONELLA TYPHIMURIUM, Strain/Indicator: TA98, Metabolic Activation: RAT, LIVER, S-9, AROCLOR 1254 (10 OR 30%), Method: PREINCUBATION) was “inactive; negative” and the mutagenic call (Test System: AMES SALMONELLA TYPHIMURIUM, Strain/Indicator: TA100, Metabolic Activation: HAMSTER, LIVER, S-9, AROCLOR 1254 (10 OR 30%), Method: PREINCUBATION) was “inactive; negative”. For the same compound, the mutagenic call [10] was “inactive; negative”, the mutagenic call (Test System: AMES SALMONELLA TYPHIMURIUM, Strain/Indicator: TA100, Metabolic Activation: RAT, LIVER, S-9, AROCLOR 1254 (10 OR 30%), Method: PREINCUBATION) was “inactive; negative” and the mutagenic call (Test System: AMES SALMONELLA TYPHIMURIUM, Strain/Indicator: TA1535, Metabolic Activation: HAMSTER, LIVER, S-9, AROCLOR 1254 (10 OR 30%), Method: PREINCUBATION) was “inactive; negative”. For the same compound, the mutagenic call (Test System: AMES SALMONELLA TYPHIMURIUM, Strain/Indicator: TA1535, Metabolic Activation: NONE, Method: PREINCUBATION) was “inactive; negative”, the mutagenic call (Test System: AMES SALMONELLA TYPHIMURIUM, Strain/Indicator: TA1535, Metabolic Activation: RAT, LIVER, S-9, AROCLOR 1254 (10 OR 30%), Method: PREINCUBATION) was “inactive; negative” and the mutagenic call (Test System: AMES SALMONELLA TYPHIMURIUM, Strain/Indicator: TA1537, Metabolic Activation: HAMSTER, LIVER, S-9, AROCLOR 1254 (30%), Method: PREINCUBATION) was “inactive; negative”. For the same compound, the mutagenic call (Test System: AMES SALMONELLA TYPHIMURIUM, Strain/Indicator: TA1537, Metabolic Activation: NONE, Method: PREINCUBATION) was “inactive; negative” and the mutagenic call (Test System: AMES SALMONELLA TYPHIMURIUM, Strain/Indicator: TA1537, Metabolic Activation: RAT, LIVER, S-9, AROCLOR 1254 (30%), Method: PREINCUBATION) was “inactive; negative”.
For O=C(O)C1CCCN1 (stereo unspecified), the mutagenic call (Test System: AMES SALMONELLA TYPHIMURIUM, Strain/Indicator: TA98, Metabolic Activation: RAT LIVER S-9, CHLOROPHENE, Method: STANDARD PLATE (COMPOUND HEATED AT 250 DEGREES CELSIUS FOR 20 MIN)) was “active; positive”.
With CCC(C)C=O (stereo unspecified) the mutagenic call [9] was “inactive; negative”, the mutagenic call (Test System: AMES SALMONELLA TYPHIMURIUM, Strain/Indicator: TA98, Metabolic Activation: RAT, LIVER, S-9, AROCLOR 1254, Method: PREINCUBATION) was “inactive; negative” and the mutagenic call [10] was “inactive; negative”. For the same compound, the mutagenic call (Test System: AMES SALMONELLA TYPHIMURIUM, Strain/Indicator: TA100, Metabolic Activation: RAT, LIVER, S-9, AROCLOR 1254, Method: PREINCUBATION) was “inactive; negative”, the mutagenic call (Test System: AMES SALMONELLA TYPHIMURIUM, Strain/Indicator: TA102, Metabolic Activation: NONE, Method: PREINCUBATION) was “inactive; negative” and the mutagenic call (Test System: AMES SALMONELLA TYPHIMURIUM, Strain/Indicator: TA102, Metabolic Activation: RAT, LIVER, S-9, AROCLOR 1254, Method: PREINCUBATION) was “inactive; negative”.
In the case of Nc1ccc(O)c2c1C(=O)c1c(O)ccc(N)c1C2=O, the mutagenic call [1] is reported as “active; positive”, the mutagenic call [2] is reported as “active; positive” and the mutagenic call [5] is reported as “inactive; negative”. For the same compound, the mutagenic call [6] was “inactive; negative”, the mutagenic call [7] was “active; positive” and the mutagenic call [8] was “active; positive”. For the same compound, the mutagenic call (Test System: AMES SALMONELLA TYPHIMURIUM, Strain/Indicator: TA1538, Metabolic Activation: NONE, Method: STANDARD PLATE) was “active; positive”, the mutagenic call (Test System: AMES SALMONELLA TYPHIMURIUM, Strain/Indicator: TA1538, Metabolic Activation: RAT, LIVER, S-9, AROCLOR 1254, Method: STANDARD PLATE) was “active; positive” and the mutagenic call (Test System: AMES SALMONELLA TYPHIMURIUM, Strain/Indicator: TA1978, Metabolic Activation: NONE, Method: STANDARD PLATE) was “inactive; negative”. The mutagenic call (Test System: AMES SALMONELLA TYPHIMURIUM, Strain/Indicator: TA1978, Metabolic Activation: RAT, LIVER, S-9, AROCLOR 1254, Method: STANDARD PLATE) was “inactive; negative”.
